According to PubChem BioAssay (NCI):
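Cultured in 96-well plates, cells were exposed to test compound for 48 hours across five concentrations. Abbreviation: GI50, concentration required for 50% inhibition of growth. The concentration for full growth arrest is given as TGI.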

Key:
Experiment in all cases: inhibition of tumour cell growth, NCI panel, 48 h
HCC-2998 colon = system: HCC-2998 colon
UO-31 renal = system: UO-31 renal
M14 melanoma = system: M14 melanoma
SK-MEL-5 melanoma = system: SK-MEL-5 melanoma
SK-OV-3 ovarian = system: SK-OV-3 ovarian
SNB-19 CNS = system: SNB-19 CNS
UACC-257 melanoma = system: UACC-257 melanoma
RXF 393 renal = system: RXF 393 renal
HS 578T breast = system: HS 578T breast
OVCAR-4 ovarian = system: OVCAR-4 ovarian
U251 CNS = system: U251 CNS
NCI/ADR-RES ovarian = system: NCI/ADR-RES ovarian
CAKI-1 renal = system: CAKI-1 renal
BT-549 breast = system: BT-549 breast
EKVX NSCLC = system: EKVX NSCLC
TK-10 renal = system: TK-10 renal
HOP-62 NSCLC = system: HOP-62 NSCLC
NCI-H460 lung = system: NCI-H460 lung
NCI-H226 lung = system: NCI-H226 lung
NCI-H23 lung = system: NCI-H23 lung
OVCAR-5 ovarian = system: OVCAR-5 ovarian
K-562 leukemia = system: K-562 leukemia
HCT-116 colon = system: HCT-116 colon
SK-MEL-28 melanoma = system: SK-MEL-28 melanoma
MOLT-4 leukemia = system: MOLT-4 leukemia
CCRF-CEM leukemia = system: CCRF-CEM leukemia
MDA-MB-435 = system: MDA-MB-435
HCT-15 colon = system: HCT-15 colon
MCF7 breast = system: MCF7 breast
UACC-62 melanoma = system: UACC-62 melanoma
SW-620 colon = system: SW-620 colon
A498 renal = system: A498 renal
HOP-92 NSCLC = system: HOP-92 NSCLC
SK-MEL-2 melanoma = system: SK-MEL-2 melanoma
SR leukemia = system: SR leukemia
ACHN renal = system: ACHN renal
T-47D breast = system: T-47D breast
SF-539 CNS = system: SF-539 CNS
SF-268 CNS = system: SF-268 CNS
DU-145 prostate = system: DU-145 prostate
MDA-MB-231 breast = system: MDA-MB-231 breast
RPMI-8226 leukemia = system: RPMI-8226 leukemia
SF-295 CNS = system: SF-295 CNS
OVCAR-3 ovarian = system: OVCAR-3 ovarian
KM12 colon = system: KM12 colon
786-0 renal = system: 786-0 renal
NCI-H522 lung = system: NCI-H522 lung
COLO 205 colon = system: COLO 205 colon
SNB-75 CNS = system: SNB-75 CNS
LOX IMVI melanoma = system: LOX IMVI melanoma
OVCAR-8 ovarian = system: OVCAR-8 ovarian
PC-3 prostate = system: PC-3 prostate
IGROV1 ovarian = system: IGROV1 ovarian
A549 NSCLC = system: A549 NSCLC
HT29 colon = system: HT29 colon
SN12C renal = system: SN12C renal
HL-60(TB) leukemia = system: HL-60(TB) leukemia
MALME-3M melanoma = system: MALME-3M melanoma

SMILES: CN(C)C(=O)c1cc2cnc(Nc3ccc(-c4csc5c(=O)cc(N6CCNCC6)oc45)cc3)nc2n1C1CCCC1
- GI50 (HCC-2998 colon): 0.551 µM
- TGI (HCC-2998 colon): 2.03 µM
- GI50 (UO-31 renal): 1.64 µM
- TGI (UO-31 renal): 4.58 µM
- GI50 (M14 melanoma): 0.99 µM
- TGI (M14 melanoma): 2.59 µM
- GI50 (SK-MEL-5 melanoma): 1.18 µM
- TGI (SK-MEL-5 melanoma): 2.51 µM
- GI50 (SK-OV-3 ovarian): 6.21 µM
- TGI (SK-OV-3 ovarian): 21.2 µM
- GI50 (SNB-19 CNS): 0.551 µM
- TGI (SNB-19 CNS): 2.62 µM
- GI50 (UACC-257 melanoma): 5.28 µM
- TGI (UACC-257 melanoma): 22.9 µM
- GI50 (RXF 393 renal): 0.27 µM
- TGI (RXF 393 renal): 1.03 µM
- GI50 (HS 578T breast): 0.943 µM
- TGI (HS 578T breast): 4.39 µM
- GI50 (OVCAR-4 ovarian): 1.34 µM
- TGI (OVCAR-4 ovarian): 5.73 µM
- GI50 (U251 CNS): 0.561 µM
- TGI (U251 CNS): 1.96 µM
- GI50 (NCI/ADR-RES ovarian): 6.9 µM
- TGI (NCI/ADR-RES ovarian): 32.7 µM
- GI50 (CAKI-1 renal): 0.819 µM
- TGI (CAKI-1 renal): 12.9 µM
- GI50 (BT-549 breast): 1.35 µM
- TGI (BT-549 breast): 3.15 µM
- GI50 (EKVX NSCLC): 1.49 µM
- TGI (EKVX NSCLC): 6.53 µM
- GI50 (TK-10 renal): 1.34 µM
- TGI (TK-10 renal): 14.6 µM
- GI50 (HOP-62 NSCLC): 1.03 µM
- TGI (HOP-62 NSCLC): 10.6 µM
- GI50 (NCI-H460 lung): 0.814 µM
- TGI (NCI-H460 lung): 2.35 µM
- GI50 (NCI-H226 lung): 1.61 µM
- TGI (NCI-H226 lung): 15.3 µM
- GI50 (NCI-H23 lung): 0.995 µM
- TGI (NCI-H23 lung): 2.93 µM
- GI50 (OVCAR-5 ovarian): 0.491 µM
- TGI (OVCAR-5 ovarian): 5.11 µM
- GI50 (K-562 leukemia): 0.456 µM
- TGI (K-562 leukemia): 4.2 µM
- GI50 (HCT-116 colon): 0.318 µM
- TGI (HCT-116 colon): 1.4 µM
- GI50 (SK-MEL-28 melanoma): 2.14 µM
- TGI (SK-MEL-28 melanoma): 6.88 µM
- GI50 (MOLT-4 leukemia): 0.368 µM
- TGI (MOLT-4 leukemia): 2.11 µM
- GI50 (CCRF-CEM leukemia): 0.433 µM
- GI50 (MDA-MB-435): 0.94 µM
- TGI (MDA-MB-435): 6.61 µM
- GI50 (HCT-15 colon): 1.84 µM
- TGI (HCT-15 colon): 5.79 µM
- GI50 (MCF7 breast): 0.294 µM
- TGI (MCF7 breast): 1.57 µM
- GI50 (UACC-62 melanoma): 1.44 µM
- TGI (UACC-62 melanoma): 8.69 µM
- GI50 (SW-620 colon): 0.418 µM
- TGI (SW-620 colon): 2.09 µM
- GI50 (A498 renal): 1.24 µM
- TGI (A498 renal): 3.01 µM
- GI50 (HOP-92 NSCLC): 0.517 µM
- TGI (HOP-92 NSCLC): 16.5 µM
- GI50 (SK-MEL-2 melanoma): 2.09 µM
- TGI (SK-MEL-2 melanoma): 7.14 µM
- GI50 (SR leukemia): 0.231 µM
- TGI (SR leukemia): 2.44 µM
- GI50 (ACHN renal): 1.78 µM
- TGI (ACHN renal): 5.51 µM
- GI50 (T-47D breast): 0.949 µM
- TGI (T-47D breast): 9.5 µM
- GI50 (SF-539 CNS): 1.15 µM
- TGI (SF-539 CNS): 2.43 µM
- GI50 (SF-268 CNS): 0.638 µM
- TGI (SF-268 CNS): 4.09 µM
- GI50 (DU-145 prostate): 1.01 µM
- TGI (DU-145 prostate): 2.5 µM
- GI50 (MDA-MB-231 breast): 0.71 µM
- TGI (MDA-MB-231 breast): 2.24 µM
- GI50 (RPMI-8226 leukemia): 0.453 µM
- TGI (RPMI-8226 leukemia): 2.74 µM
- GI50 (SF-295 CNS): 2.1 µM
- TGI (SF-295 CNS): 10.7 µM
- GI50 (OVCAR-3 ovarian): 0.871 µM
- TGI (OVCAR-3 ovarian): 2.72 µM
- GI50 (KM12 colon): 0.345 µM
- TGI (KM12 colon): 1.58 µM
- GI50 (786-0 renal): 0.535 µM
- TGI (786-0 renal): 1.93 µM
- GI50 (NCI-H522 lung): 0.473 µM
- TGI (NCI-H522 lung): 2.55 µM
- GI50 (COLO 205 colon): 0.671 µM
- TGI (COLO 205 colon): 4.64 µM
- GI50 (SNB-75 CNS): 0.313 µM
- TGI (SNB-75 CNS): 2.03 µM
- GI50 (LOX IMVI melanoma): 0.85 µM
- TGI (LOX IMVI melanoma): 2.22 µM
- GI50 (OVCAR-8 ovarian): 1.21 µM
- TGI (OVCAR-8 ovarian): > 42.5 µM
- GI50 (PC-3 prostate): 0.677 µM
- TGI (PC-3 prostate): 4.93 µM
- GI50 (IGROV1 ovarian): 0.523 µM
- TGI (IGROV1 ovarian): 6.12 µM
- GI50 (A549 NSCLC): 1.16 µM
- TGI (A549 NSCLC): 3.81 µM
- GI50 (HT29 colon): 0.438 µM
- TGI (HT29 colon): 2.99 µM
- GI50 (SN12C renal): 0.557 µM
- TGI (SN12C renal): 16.8 µM
- GI50 (HL-60(TB) leukemia): 0.271 µM
- TGI (HL-60(TB) leukemia): 1.72 µM
- GI50 (MALME-3M melanoma): 1.38 µM
- TGI (MALME-3M melanoma): 2.94 µM
